Here are results for six compounds from PubChem BioAssay AID449727 (Sanford-Burnham Center for Chemical Genomics, 2010).

The target of this assay is Tyrosine-protein phosphatase non-receptor type 22 (Homo sapiens) (UniProt Q9Y2R2). In words: inhibition of lymphoid tyrosine phosphatase LYP – biochemical, pCAP fluorogenic substrate, fluorescence, set 3, SAR follow-up (AID 449727). As to conditions: recombinant LYP.

Structures are written as SMILES.

Chain of Tyrosine-protein phosphatase non-receptor type 22 (Homo sapiens) (Q9Y2R2 whole entry, looked up): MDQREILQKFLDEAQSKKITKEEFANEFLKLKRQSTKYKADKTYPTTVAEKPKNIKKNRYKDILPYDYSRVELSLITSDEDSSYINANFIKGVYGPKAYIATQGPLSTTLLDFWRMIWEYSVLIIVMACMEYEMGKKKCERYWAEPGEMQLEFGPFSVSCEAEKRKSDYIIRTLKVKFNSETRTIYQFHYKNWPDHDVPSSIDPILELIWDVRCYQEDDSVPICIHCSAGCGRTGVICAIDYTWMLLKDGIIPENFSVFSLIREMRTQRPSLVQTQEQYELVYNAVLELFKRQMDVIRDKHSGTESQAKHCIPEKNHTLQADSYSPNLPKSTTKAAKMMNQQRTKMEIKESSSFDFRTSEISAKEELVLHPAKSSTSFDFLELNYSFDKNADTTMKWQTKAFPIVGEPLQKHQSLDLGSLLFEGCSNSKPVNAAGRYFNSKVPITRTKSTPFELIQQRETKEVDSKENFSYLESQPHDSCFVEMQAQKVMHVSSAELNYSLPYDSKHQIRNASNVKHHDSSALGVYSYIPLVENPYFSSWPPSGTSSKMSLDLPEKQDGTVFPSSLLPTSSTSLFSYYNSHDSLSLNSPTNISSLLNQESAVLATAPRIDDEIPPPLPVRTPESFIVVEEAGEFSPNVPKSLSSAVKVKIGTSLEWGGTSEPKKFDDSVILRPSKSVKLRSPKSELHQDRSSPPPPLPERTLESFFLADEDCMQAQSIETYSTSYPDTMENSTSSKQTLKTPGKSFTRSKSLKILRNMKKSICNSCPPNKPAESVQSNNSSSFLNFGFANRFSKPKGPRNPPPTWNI

For orientation: IC50 means the midpoint of a concentration-inhibition curve. `CCc1ccc(/C=C2\SC(=S)N(CCCC(=O)Nc3ccc(C(=O)O)cc3)C2=O)cc1`: the IC50 was 76 µM. The value for `N#C/C(=C\c1ccc(OCc2ccc(Cl)cc2)cc1)C(=O)Nc1cccc(C(=O)O)c1` was 6.36 µM; that for `O=C(O)CCCN1C(=O)/C(=C/c2ccc(-c3nc4ccccc4s3)o2)SC1=S` was 3.96 µM.

Take `COc1ccc(/C=C2\SC(=S)N(CCC(=O)Nc3ccc(C(=O)O)cc3)C2=O)cc1OC`: the IC50 was 2.94 µM.

For `Cc1c(Cl)cccc1NS(=O)(=O)c1ccc2c(c1)C1C=CCC1C(c1ccc(C(=O)O)cc1)N2` (stereo unspecified), the concentration for half-maximal inhibition (IC50) was 47 µM.

On to `CCOC(=O)C1=C(C)N=c2s/c(=C/c3cc(Cl)c(OCC(=O)O)c(OC)c3)c(=O)n2C1c1ccccc1Cl` (stereo unspecified), for which the concentration for half-maximal inhibition (IC50) was 30.6 µM.
